Measurements published in BindingDB's records for doi:10.1021/jm501395b (University of Strasburg, 2015).

Experiments:
Oxytocin receptor [1] = molecular target: T1, Oxytocin receptor (Homo sapiens, UniProt P30559); experiment: Binding affinity to SNAP-tagged oxytocin receptor (unknown origin) expressed in HEK293 cells assessed as association constant after 5 to 120 mins by TR-FRET assay; conditions: read-out: kon (M-1-s-1)
T1 sequence (P30559 whole entry): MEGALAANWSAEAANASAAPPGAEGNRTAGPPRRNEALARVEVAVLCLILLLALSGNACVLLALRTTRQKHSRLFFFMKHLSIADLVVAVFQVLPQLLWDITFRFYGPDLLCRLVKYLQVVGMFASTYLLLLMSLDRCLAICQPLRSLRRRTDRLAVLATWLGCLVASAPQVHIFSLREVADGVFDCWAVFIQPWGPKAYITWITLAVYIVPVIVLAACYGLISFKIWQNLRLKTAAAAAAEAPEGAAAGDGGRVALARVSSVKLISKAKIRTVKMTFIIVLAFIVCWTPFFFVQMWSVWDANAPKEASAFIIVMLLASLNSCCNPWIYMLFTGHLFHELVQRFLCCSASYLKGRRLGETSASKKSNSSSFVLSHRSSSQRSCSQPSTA

Oxytocin receptor [2] = molecular target: T1, Oxytocin receptor; experiment: Binding affinity to SNAP-tagged oxytocin receptor (unknown origin) expressed in HEK293 cells assessed as dissociation constant after 5 to 120 mins by TR-FRET assay

| Compound | kon (Oxytocin receptor [1]) [M⁻¹ s⁻¹] | koff (Oxytocin receptor [2]) [s⁻¹] |
| --- | --- | --- |
| COc1ccc(-n2c(COCCOCCOCCOCCNC(=O)CCCCCNC(=O)c3ccc(-c4c5ccc(=O)cc-5oc5cc(O)ccc45)c(C(=O)O)c3)nnc2N2CC(Oc3ccc(F)cc3Cl)C2)cn1 | 59500 | 0.000315 |
| CCN1\C(=C/C=C/C=C/C2=[N+](CC)c3cc(S(=O)(=O)[O-])ccc3C2(C)C)C(C)(CCCC(=O)NCCOCCOCCOCCOCc2nnc(N3CC(Oc4ccc(F)cc4Cl)C3)n2-c2ccc(OC)nc2)c2cc(S(=O)(=O)O)ccc21 (centres undefined) | 67200 | 0.000182 |
